# Laboratory results reported in patent EP2161024A1, “Combination product for the treatment of cancer” (Universitätsklinikum Hamburg-Eppendorf, priority 2008, dated 2010).
# Key:
# [1] = system: OH1-Zellen; assay: XTT cell proliferation (growth) test with OH1 cells; details: single agent (alleinige Gabe), 1 µM to 0,001 µM, 72 h incubation, Figur 2
# [2] = system: Zelllinie H69; assay: XTT cell proliferation (growth) test with H69 cells; format: cell-based; details: single agent (alleinige Gabe), Figuren 5a, 5b
# [3] = system: Zelllinie H82; assay: XTT cell proliferation (growth) test with H82 cells; details: for Zellwachstum: single agent (alleinige Gabe), H82 cells, Figur 7
SMILES,Wachstum der OH1-Zellen [1],Wachstum der Zellen [2],"inhibition at 5 µM ([3]; Homo sapiens, NCI-H82, read-out: Hemmung der Proliferation) [%]",Zellwachstum [3]
"COc1ccc(CCN2CCC(Nc3nc4ccccc4n3Cc3ccc(F)cc3)CC2)cc1 [Astemizol, 1-[(4-Fluorphenyl)methyl]-N-[1-[2-(4-methoxyphenyl)ethyl]-4-piperidyl]benzoimidazol-2-amin]",nicht zu einer Verringerung des Wachstums,nicht zu einer Verringerung des Wachstums,50,kaum Auswirkungen auf das Zellwachstum
"CCC(C)C(=O)OC1CC(C)C=C2C=CC(C)C(CCC3CC(O)CC(=O)O3)C21 (stereo not drawn) [Lovastatin, [8-[2-(4-hydroxy-6-oxo-oxan-2-yl)ethyl]-3,7-dimethyl-1,2,3,7,8,8a-hexahydronaphthalen-1-yl]-2-methylbutanoat]",nicht zu einer Verringerung des Wachstums,,,kaum Auswirkungen auf das Zellwachstum
"CC(C)c1c(C(=O)Nc2ccccc2)c(-c2ccccc2)c(-c2ccc(F)cc2)n1CC[C@@H](O)C[C@@H](O)CC(=O)O [Atorvastatin, (3R,5R)-7-[2-(4-Fluorphenyl)-5-isopropyl-3-phenyl-4-(phenylcarbamoyl)pyrrol-1-yl]-3,5-dihydroxyheptansäure]",nicht zu einer Verringerung des Wachstums,nicht zu einer Verringerung des Wachstums,,kaum Auswirkungen auf das Zellwachstum
